Patent US20200078468A1, “NEUROTENSIN RECEPTOR BINDING CONJUGATES AND FORMULATIONS THEREOF” (priority 2016, published 2020)
Numbered stars: 1 amine (or outer) side, 2 acyl side, 3 side chain; on linkers, the order of the positions; unused ones are H or OH. Bridge positions count the residues as written; N and C are the ends. Square brackets hold non-standard residues; d marks the D form. Peptide text beside a SMILES is read from it. I, II: the chains in the order shown. * marks the point of attachment. SN38(20-O) = CCc1c2c(nc3ccc(O)cc13)-c1cc3c(c(=O)n1C2)COC(=O)[C@@]3(CC)O*; Hexanoyl(6-succinimido-3yl) = O=C1CC([*:1])C(=O)N1CCCCCC(=O)[*:2]; NMeR = CN[C@@H](CCCNC(=N)N)C(=O)O; Pen = CC(C)(S)[C@H](N)C(=O)O; Tle = CC(C)(C)[C@H](N)C(=O)O

Tested on: SW48 (human colon cancer cells)
Experiment: inhibition of SW48 cell proliferation (CellTiter Glo)
Format: cell-based
Conditions: NTSR1 scrambled compound; 72 hrs; read-out: SW-48 proliferation IC50
Protocol: Conjugates were assessed in an in vitro assay evaluating inhibition of cell proliferation. SW48 (human colon cancer cells, ATCC®), cells were plated in 96 well, flat-bottomed plates (Costar) at a concentration of 5,000 cells/well. Cells were then incubated at 37° C. with 5% CO2 for 24 hrs. After 24 hrs, cells were treated with 0.01% DMSO or compound. Compounds were added at a starting dose of 10 μM and three fold serial dilutions were done for a total often points. Following compound addition, cells were incubated at 37° C. with 5% CO2 for 72 hrs. Proliferation was measured by CellTiter Glo reagent using the standard protocol (Promega) and a Glomax multi+detection system (Promega). Percent proliferation inhibition was calculated using the following formula: % inhibition=(control−treatment)/control*100. Control is defined as vehicle alone. IC50 curves were generated using the nonlinear regression analysis (four parameter) with GraphPad Prism 6.
Conjugates are assessed for receptor-dependent cytotoxicity by the difference between an NTSR1-targeting conjugate, and the corresponding conjugate with the same linker moiety and active agent where the NTSR1-targeting domain has been scrambled.

| Structure (SMILES) | IC50 [nM] |
| --- | --- |
| CC[C@H](C)[C@@H]([C@@H](CC(=O)N1CCC[C@H]1[C@H](OC)[C@@H](C)C(=O)N[C@H](C)[C@@H](O)c1ccccc1)OC)N(C)C(=O)[C@@H](NC(=O)[C@H](C(C)C)N(C)C(=O)OCc1ccc(NC(=O)[C@H](CCCNC(N)=O)NC(=O)[C@@H](NC(=O)CCCCCN2C(=O)CC(SCCC(=O)NCCOCCOCCOCCOCCC(=O)NCCCC[C@H](NC(C)=O)C(=O)N3CCC[C@H]3C(=O)N[C@@H](CC(C)C)C(=O)N3CCC[C@H]3C(=O)N(C)[C@@H](CCCNC(=N)N)C(=O)N[C@H](C(=O)N[C@@H](CCCNC(=N)N)C(=O)N[C@@H](Cc3ccc(O)cc3)C(=O)O)C(C)(C)C)C2=O)C(C)C)cc1)C(C)C (some centres unmarked) [Compound 95] | 60.1 |
| CC(=O)N[C@H](C(=O)N1CCC[C@H]1C(=O)N[C@@H](CC(C)C)C(=O)N1CCC[C@H]1C(=O)N[C@@H](CCCNC(=N)N)C(=O)N[C@H](C(=O)N[C@@H](CCCNC(=N)N)C(=O)N[C@@H](Cc1ccc(O)cc1)C(=O)O)C(C)(C)C)C(C)(C)SC1CC(=O)N(CCCCCC(=O)N[C@@H](Cc2ccccc2)C(=O)N[C@@H](CC(C)C)B2O[C@@H]3[C@@H]4C[C@H](C[C@]3(C)O2)C4(C)C)C1=O (some centres unmarked) [Compound 69] | > 10000 |
| CC[C@H](C)[C@@H]([C@@H](CC(=O)N1CCC[C@H]1[C@H](OC)[C@@H](C)C(=O)N[C@H](C)[C@@H](O)c1ccccc1)OC)N(C)C(=O)[C@@H](NC(=O)[C@H](C(C)C)N(C)C(=O)OCc1ccc(NC(=O)[C@H](CCCNC(N)=O)NC(=O)[C@@H](NC(=O)CCCCCN2C(=O)CC(SCCC(=O)NCCOCCOCCC(=O)NCCCC[C@H](NC(C)=O)C(=O)N3CCC[C@H]3C(=O)N[C@@H](CC(C)C)C(=O)N3CCC[C@H]3C(=O)N(C)[C@@H](CCCNC(=N)N)C(=O)N[C@H](C(=O)N[C@@H](CCCNC(=N)N)C(=O)N[C@@H](Cc3ccc(O)cc3)C(=O)O)C(C)(C)C)C2=O)C(C)C)cc1)C(C)C (some centres unmarked) [Compound 94] | 52.5 |
| CO[C@H]1C(=O)[C@]2(C)[C@@H](OC)C[C@H]3OC[C@@]3(OC(C)=O)[C@H]2[C@H](OC(=O)c2ccccc2)[C@]2(O)C[C@H](OC(=O)[C@H](OC(=O)N(C)CCN(C)C(=O)OCc3ccc(NC(=O)[C@H](CCCNC(N)=O)NC(=O)[C@@H](NC(=O)CCCCCN4C(=O)CC(SC(C)(C)[C@H](NC(C)=O)C(=O)N5CCC[C@H]5C(=O)N[C@@H](CC(C)C)C(=O)N5CCC[C@H]5C(=O)N[C@@H](CCCNC(=N)N)C(=O)N[C@H](C(=O)N[C@@H](CCCNC(=N)N)C(=O)N[C@@H](Cc5ccc(O)cc5)C(=O)O)C(C)(C)C)C4=O)C(C)C)cc3)[C@@H](NC(=O)OC(C)(C)C)c3ccccc3)C(C)=C1C2(C)C (some centres unmarked) [Compound 73] | 2620 |
| CC[C@H](C)[C@@H]([C@@H](CC(=O)N1CCC[C@H]1[C@H](OC)[C@@H](C)C(=O)N[C@H](C)[C@@H](O)c1ccccc1)OC)N(C)C(=O)[C@@H](NC(=O)[C@H](C(C)C)N(C)C(=O)OCc1ccc(NC(=O)[C@H](CCCNC(N)=O)CC(=O)[C@@H](NC(=O)CCCCCN2C(=O)CC(SCCC(=O)NCCOCCOCCOCCOCCOCCOCCOCCOCCC(=O)NCCCC[C@H](NC(C)=O)C(=O)N3CCC[C@H]3C(=O)N[C@@H](CC(C)C)C(=O)N3CCC[C@H]3C(=O)N(C)[C@@H](CCCNC(=N)N)C(=O)N[C@H](C(=O)N[C@@H](CCCNC(=N)N)C(=O)N[C@@H](Cc3ccc(O)cc3)C(=O)O)C(C)(C)C)C2=O)C(C)C)cc1)C(C)C (some centres unmarked) [Compound 96] | 76.7 |
| COc1cc2cc(c1Cl)N(C)C(=O)C[C@H](OC(=O)[C@H](C)N(C)C(=O)CCSC1CC(=O)N(CCCNC(=O)CNC(=O)[C@H](CC(C)C)NC(=O)[C@H](Cc3ccccc3)NC(=O)CNC(=O)CCCCCN3C(=O)CC(SCCC(=O)NCCOCCOCCOCCOCCOCCOCCOCCOCCC(=O)NCCCC[C@H](NC(C)=O)C(=O)N4CCC[C@H]4C(=O)N[C@@H](CC(C)C)C(=O)N4CCC[C@H]4C(=O)N(C)[C@@H](CCCNC(=N)N)C(=O)N[C@H](C(=O)N[C@@H](CCCNC(=N)N)C(=O)N[C@@H](Cc4ccc(O)cc4)C(=O)O)C(C)(C)C)C3=O)C1=O)[C@]1(C)O[C@H]1[C@H](C)[C@@H]1C[C@@](O)(NC(=O)O1)[C@H](OC)/C=C/C=C(\C)C2 (some centres unmarked) [Compound 85] | 59.5 |
| CCc1c2c(nc3ccc(O)cc13)-c1cc3c(c(=O)n1C2)COC(=O)[C@@]3(CC)OC(=O)OCc1ccc(NC(=O)[C@H](CCCNC(N)=O)NC(=O)[C@@H](NC(=O)CCCCCN2C(=O)CC(SC(C)(C)[C@H](NC(C)=O)C(=O)N3CCC[C@H]3C(=O)N[C@@H](CC(C)C)C(=O)N3CCC[C@H]3C(=O)N[C@@H](CCCNC(=N)N)C(=O)N[C@H](C(=O)N[C@@H](CCCNC(=N)N)C(=O)N[C@@H](Cc3ccc(O)cc3)C(=O)O)C(C)(C)C)C2=O)C(C)C)cc1 (some centres unmarked) [Compound 98] | 61 |
| COc1cc2cc(c1Cl)N(C)C(=O)C[C@H](OC(=O)[C@H](C)N(C)C(=O)CCSC1CC(=O)N(CCCNC(=O)CNC(=O)[C@H](CC(C)C)NC(=O)[C@H](Cc3ccccc3)NC(=O)CNC(=O)CCCCCN3C(=O)CC(SCCC(=O)NCCCC[C@H](NC(C)=O)C(=O)N4CCC[C@H]4C(=O)N[C@@H](CC(C)C)C(=O)N4CCC[C@H]4C(=O)N(C)[C@@H](CCCNC(=N)N)C(=O)N[C@H](C(=O)N[C@@H](CCCNC(=N)N)C(=O)N[C@@H](Cc4ccc(O)cc4)C(=O)O)C(C)(C)C)C3=O)C1=O)[C@]1(C)O[C@H]1[C@H](C)[C@@H]1C[C@@](O)(NC(=O)O1)[C@H](OC)/C=C/C=C(\C)C2 (some centres unmarked) [Compound 82] | 435 |

Same assay, conditions: NTSR1 targeted compound; 72 hrs; read-out: SW-48 proliferation IC50

| Structure (SMILES) | IC50 [nM] |
| --- | --- |
| CCc1c2c(nc3ccc(O)cc13)-c1cc3c(c(=O)n1C2)COC(=O)[C@@]3(CC)OC(=O)CNC(=O)CNC(=O)[C@H](CC(C)C)NC(=O)[C@H](Cc1ccccc1)NC(=O)CNC(=O)CCCCCN1C(=O)CC(SC(C)(C)[C@H](NC(C)=O)C(=O)N2CCC[C@H]2C(=O)N[C@@H](CCCNC(=N)N)C(=O)N[C@@H](CCCNC(=N)N)C(=O)N2CCC[C@H]2C(=O)N[C@@H](Cc2ccc(O)cc2)C(=O)N[C@H](C(=O)N[C@@H](CC(C)C)C(=O)O)C(C)(C)C)C1=O (stereo partly drawn) [Compound 65] (I: Ac-[Pen]PRRPY[Tle]L-OH / II: GFLGG-{SN38(20-O)}; linker I:1-II:N via Hexanoyl(6-succinimido-3yl)) | 800 |
| COc1cc2cc(c1Cl)N(C)C(=O)C[C@H](OC(=O)[C@H](C)N(C)C(=O)CCSC1CC(=O)N(CCCNC(=O)CNC(=O)[C@H](CC(C)C)NC(=O)[C@H](Cc3ccccc3)NC(=O)CNC(=O)CCCCCN3C(=O)CC(SCCC(=O)NCCOCCOCCC(=O)NCCCC[C@H](NC(C)=O)C(=O)N4CCC[C@H]4C(=O)N(C)[C@@H](CCCNC(=N)N)C(=O)N[C@@H](CCCNC(=N)N)C(=O)N4CCC[C@H]4C(=O)N[C@@H](Cc4ccc(O)cc4)C(=O)N[C@H](C(=O)N[C@@H](CC(C)C)C(=O)O)C(C)(C)C)C3=O)C1=O)[C@]1(C)O[C@H]1[C@H](C)[C@@H]1C[C@@](O)(NC(=O)O1)[C@H](OC)/C=C/C=C(\C)C2 (some centres unmarked) [Compound 24] | 2 |
| CCc1c2c(nc3ccc(O)cc13)-c1cc3c(c(=O)n1C2)COC(=O)[C@@]3(CC)OC(=O)CNC(=O)CNC(=O)[C@H](CC(C)C)NC(=O)[C@H](Cc1ccccc1)NC(=O)CNC(=O)CCCCCN1C(=O)CC(SC(C)(C)[C@H](NC(C)=O)C(=O)N2CCC[C@H]2C(=O)N(C)[C@@H](CCCNC(=N)N)C(=O)N[C@@H](CCCNC(=N)N)C(=O)N2CCC[C@H]2C(=O)N[C@@H](Cc2ccc(O)cc2)C(=O)N[C@H](C(=O)N[C@@H](CC(C)C)C(=O)O)C(C)(C)C)C1=O (stereo partly drawn) [Compound 67] (I: Ac-[Pen]P[NMeR]RPY[Tle]L-OH / II: GFLGG-{SN38(20-O)}; linker I:1-II:N via Hexanoyl(6-succinimido-3yl)) | 816 |
| CO[C@H]1C(=O)[C@]2(C)[C@@H](OC)C[C@H]3OC[C@@]3(OC(C)=O)[C@H]2[C@H](OC(=O)c2ccccc2)[C@]2(O)C[C@H](OC(=O)[C@H](OC(=O)N(C)CCN(C)C(=O)OCc3ccc(NC(=O)[C@H](CCCNC(N)=O)NC(=O)[C@@H](NC(=O)CCCCCN4C(=O)CC(SC(C)(C)[C@H](NC(C)=O)C(=O)N5CCC[C@H]5C(=O)N[C@@H](CCCNC(=N)N)C(=O)N(C)[C@@H](CCCNC(=N)N)C(=O)N5CCC[C@H]5C(=O)N[C@H](Cc5ccc(O)cc5)C(=O)N[C@H](C(=O)N[C@@H](CC(C)C)C(=O)O)C(C)(C)C)C4=O)C(C)C)cc3)[C@@H](NC(=O)OC(C)(C)C)c3ccccc3)C(C)=C1C2(C)C (some centres unmarked) [Compound 7] | 2000 |
| CO[C@H]1C(=O)[C@]2(C)[C@@H](OC)C[C@H]3OC[C@@]3(OC(C)=O)[C@H]2[C@H](OC(=O)c2ccccc2)[C@]2(O)C[C@H](OC(=O)[C@H](OC(=O)N(C)CCN(C)C(=O)OCc3ccc(NC(=O)[C@H](CCCNC(N)=O)NC(=O)[C@@H](NC(=O)CCCCCN4C(=O)CC(SC(C)(C)[C@H](NC(C)=O)C(=O)N5CCC[C@H]5C(=O)N[C@@H](CCCNC(=N)N)C(=O)N(C)[C@@H](CCCNC(=N)N)C(=O)N5CCC[C@H]5C(=O)N[C@@H](Cc5ccc(O)cc5)C(=O)N[C@H](C(=O)N[C@@H](CC(C)C)C(=O)O)C(C)(C)C)C4=O)C(C)C)cc3)[C@@H](NC(=O)OC(C)(C)C)c3ccccc3)C(C)=C1C2(C)C (some centres unmarked) [Compound 6] | 2240 |
| CCc1c2c(nc3ccc(O)cc13)-c1cc3c(c(=O)n1C2)COC(=O)[C@@]3(CC)OC(=O)CNC(=O)CNC(=O)[C@H](CC(C)C)NC(=O)[C@H](Cc1ccccc1)NC(=O)CNC(=O)CCCCCN1C(=O)CC(SC(C)(C)[C@H](NC(C)=O)C(=O)N2CCC[C@H]2C(=O)N[C@@H](CCCNC(=N)N)C(=O)N(C)[C@@H](CCCNC(=N)N)C(=O)N2CCC[C@H]2C(=O)N[C@@H](Cc2ccc(O)cc2)C(=O)N[C@H](C(=O)N[C@@H](CC(C)C)C(=O)O)C(C)(C)C)C1=O (stereo partly drawn) [Compound 66] (I: Ac-[Pen]PR[NMeR]PY[Tle]L-OH / II: GFLGG-{SN38(20-O)}; linker I:1-II:N via Hexanoyl(6-succinimido-3yl)) | 694 |
